Laboratory results reported in patent publication US10538555B2, “Macrocyclic inhibitors of the PD-1/PD-L1 and CD80(B7-1)/PD-L1 protein/protein interactions” (BRISTOL-MYERS SQUIBB COMPANY, priority 2014, dated 2020).
Where a SMILES comes first, the peptide text is derived from it. Bridges are numbered along the chain shown (N, C = ends). [ ]: non-standard residue; d: D form. Trp(1-CH2COOH) = N[C@@H](Cc1cn(CC(=O)O)c2ccccc12)C(=O)O; NMeW = CN[C@@H](Cc1c[nH]c2ccccc12)C(=O)O; Bta = N[C@@H](Cc1csc2ccccc12)C(=O)O; Hyp = O=C(O)[C@@H]1C[C@@H](O)CN1; NMeNle = CCCC[C@H](NC)C(=O)O; NMeA = CN[C@@H](C)C(=O)O; Dab = NCC[C@H](N)C(=O)O; Dap = NC[C@H](N)C(=O)O; Sar = CNCC(=O)O

biological target: T1, Human PD-L1/PD-1 (Homo sapiens, UniProt Q9NZQ7); experiment: HTRF Human PD-L1/PD-1 binding assay (PD-1-Ig/PD-L1-His); conditions: PD-L1-His 10 nM, PD-1-Ig 20 nM; class symbol; read-out: HTRF Human PD-L1/PD-1 Binding Assay IC50 Range
T1 construct: TVMV protease cleavage site (C); made in house; host or cells: HEK293T cells
T1 sequence (Q9NZQ7 with tags, fused parts or gaps): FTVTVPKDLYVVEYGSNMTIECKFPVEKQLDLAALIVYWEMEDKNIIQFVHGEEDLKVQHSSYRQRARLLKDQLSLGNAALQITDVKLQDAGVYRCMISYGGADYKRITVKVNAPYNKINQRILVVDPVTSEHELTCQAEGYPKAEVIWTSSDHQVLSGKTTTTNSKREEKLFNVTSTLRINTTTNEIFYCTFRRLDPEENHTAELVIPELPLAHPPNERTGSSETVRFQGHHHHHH
Method in brief: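 Competition of macrocyclic peptides for PD-1/PD-L1 binding measured by HTRF in dPBS containing 0.1% BSA and 0.05% Tween-20. Compound and PD-L1-His (10 nM final) incubated 15 min before PD-1-Ig (20 nM final) and a further 15 min.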

| IC50 [nM] | Compound |
| --- | --- |
| 1 to 9.9 | CCCC[C@H]1C(=O)N(C)[C@@H](CCCC)C(=O)N[C@@H](CCC(=O)O)C(=O)N[C@H](C(=O)NCC(N)=O)CSCC(=O)N[C@@H](Cc2ccc(O)cc2)C(=O)N(C)[C@@H](C)C(=O)N[C@@H](CC(=O)O)C(=O)N2CCC[C@H]2C(=O)N[C@@H](Cc2c[nH]cn2)C(=O)N[C@@H](CCC(N)=O)C(=O)N2C[C@H](O)C[C@H]2C(=O)N[C@@H](Cc2c[nH]c3ccccc23)C(=O)N[C@@H](CO)C(=O)N[C@@H](Cc2csc3ccccc23)C(=O)N1C [Example 5215] ({CH2CO}-Y[NMeA]DPHQ[Hyp]WS[Bta][NMeNle][NMeNle]ECG-NH2; thioether N-14) |
| 1 to 9.9 | CCCC[C@H]1C(=O)N(C)[C@@H](CCCC)C(=O)N[C@@H](CCC(=O)O)C(=O)N[C@H](C(=O)NCC(N)=O)CSCC(=O)N[C@@H](Cc2ccc(O)cc2)C(=O)N(C)[C@@H](C)C(=O)N[C@@H](CC(N)=O)C(=O)N2CCC[C@H]2C(=O)N[C@@H](CO)C(=O)N[C@@H](CC(C)C)C(=O)N2C[C@H](O)C[C@H]2C(=O)N[C@@H](Cc2c[nH]c3ccccc23)C(=O)N[C@@H](CCC(=O)O)C(=O)N[C@@H](Cc2c[nH]c3ccccc23)C(=O)N1C [Example 5216] ({CH2CO}-Y[NMeA]NPSL[Hyp]WEW[NMeNle][NMeNle]ECG-NH2; thioether N-14) |
| 10 to 99.9 | CCCC[C@H]1C(=O)N(C)[C@@H](CCCC)C(=O)N[C@@H](CCC(=O)O)C(=O)N[C@H](C(=O)NCC(N)=O)CSCC(=O)N[C@@H](Cc2ccc(O)cc2)C(=O)N(C)[C@@H](C)C(=O)N[C@@H](CC(=O)O)C(=O)N2CCC[C@H]2C(=O)N[C@@H](Cc2c[nH]cn2)C(=O)N[C@@H](CCC(N)=O)C(=O)N2C[C@H](O)C[C@H]2C(=O)N[C@@H](Cc2c[nH]c3ccccc23)C(=O)N[C@@H](CCN)C(=O)N[C@@H](Cc2c[nH]c3ccccc23)C(=O)N1C [Example 5218] ({CH2CO}-Y[NMeA]DPHQ[Hyp]W[Dab]W[NMeNle][NMeNle]ECG-NH2; thioether N-14) |
| 1 to 9.9 | CCCC[C@H]1C(=O)N(C)[C@@H](CCCC)C(=O)NCC(=O)N[C@H](C(=O)NCC(N)=O)CSCC(=O)N[C@@H](Cc2ccc(O)cc2)C(=O)N(C)[C@@H](C)C(=O)N[C@@H](CC(N)=O)C(=O)N2CCC[C@H]2C(=O)NCC(=O)N[C@@H](CCC(N)=O)C(=O)N2C[C@H](O)C[C@H]2C(=O)N[C@@H](Cc2c[nH]c3ccccc23)C(=O)NCC(=O)N[C@@H](Cc2c[nH]c3ccccc23)C(=O)N1C [Example 5219] ({CH2CO}-Y[NMeA]NPGQ[Hyp]WGW[NMeNle][NMeNle]GCG-NH2; thioether N-14) |
| 100 to 990 | CCCC[C@H]1C(=O)N(C)[C@@H](CCCC)C(=O)N[C@@H](CN)C(=O)N[C@H](C(=O)NCC(N)=O)CSCC(=O)N[C@@H](Cc2ccc(O)cc2)C(=O)N(C)[C@@H](C)C(=O)N[C@@H](CC(=O)O)C(=O)N2CCC[C@H]2C(=O)N[C@@H](Cc2c[nH]cn2)C(=O)N[C@@H](CCC(=O)O)C(=O)N2C[C@H](O)C[C@H]2C(=O)N[C@@H](Cc2c[nH]c3ccccc23)C(=O)N[C@@H](CCN)C(=O)N[C@@H](Cc2cn(CC(=O)O)c3ccccc23)C(=O)N1C [Example 5220] |
| 1 to 9.9 | CCCC[C@H]1C(=O)N(C)[C@@H](CCCC)C(=O)N[C@@H](CCC(=O)O)C(=O)N[C@H](C(=O)NCC(N)=O)CSCC(=O)N[C@@H](Cc2ccc(O)cc2)C(=O)N(C)[C@@H](C)C(=O)N[C@@H](CC(=O)O)C(=O)N2CCC[C@H]2C(=O)N[C@@H](CO)C(=O)N[C@@H](CCC(N)=O)C(=O)N2C[C@H](O)C[C@H]2C(=O)N[C@@H](Cc2c[nH]c3ccccc23)C(=O)N[C@@H](CCN)C(=O)N[C@@H](Cc2c[nH]c3ccccc23)C(=O)N1C [Example 5221] ({CH2CO}-Y[NMeA]DPSQ[Hyp]W[Dab]W[NMeNle][NMeNle]ECG-NH2; thioether N-14) |
| 1 to 9.9 | CCCC[C@H]1C(=O)N(C)[C@@H](CCCC)C(=O)N[C@@H](CCC(=O)O)C(=O)N[C@H](C(=O)NCC(N)=O)CSCC(=O)N[C@@H](Cc2ccc(O)cc2)C(=O)N(C)[C@@H](C)C(=O)N[C@@H](CC(N)=O)C(=O)N2CCC[C@H]2C(=O)N[C@@H](Cc2c[nH]cn2)C(=O)N[C@@H](CCC(N)=O)C(=O)N2C[C@H](O)C[C@H]2C(=O)N[C@@H](Cc2c[nH]c3ccccc23)C(=O)N[C@@H](CCN)C(=O)N[C@@H](Cc2c[nH]c3ccccc23)C(=O)N1C [Example 5223] ({CH2CO}-Y[NMeA]NPHQ[Hyp]W[Dab]W[NMeNle][NMeNle]ECG-NH2; thioether N-14) |
| 1 to 9.9 | CCCC[C@H]1C(=O)N(C)[C@@H](CCCC)C(=O)N[C@@H](CCC(=O)O)C(=O)N[C@H](C(=O)NCC(N)=O)CSCC(=O)N[C@@H](Cc2ccc(O)cc2)C(=O)N(C)[C@@H](C)C(=O)N[C@@H](CC(=O)O)C(=O)N2CCC[C@H]2C(=O)N[C@@H](CN)C(=O)N[C@@H](CCC(=O)O)C(=O)N2C[C@H](O)C[C@H]2C(=O)N[C@@H](Cc2c[nH]c3ccccc23)C(=O)N[C@@H](CCN)C(=O)N[C@@H](Cc2c[nH]c3ccccc23)C(=O)N1C [Example 5224] ({CH2CO}-Y[NMeA]DP[Dap]E[Hyp]W[Dab]W[NMeNle][NMeNle]ECG-NH2; thioether N-14) |
| 1 to 9.9 | CCCC[C@H]1C(=O)N(C)[C@@H](CCCC)C(=O)N[C@@H](CC(C)C)C(=O)N[C@H](C(=O)NCC(N)=O)CSCC(=O)N[C@@H](Cc2ccc(O)cc2)C(=O)N(C)[C@@H](C)C(=O)N[C@@H](CC(N)=O)C(=O)N(C)CC(=O)N[C@@H](Cc2cnc[nH]2)C(=O)N[C@@H](CCC(=O)O)C(=O)N2C[C@H](O)C[C@H]2C(=O)N[C@@H](Cc2c[nH]c3ccccc23)C(=O)N[C@@H](CCN)C(=O)N[C@@H](Cc2csc3ccccc23)C(=O)N1C [Example 5225] ({CH2CO}-Y[NMeA]N[Sar]HE[Hyp]W[Dab][Bta][NMeNle][NMeNle]LCG-NH2; thioether N-14) |
| 1 to 9.9 | CCCC[C@H]1C(=O)N(C)[C@@H](CCCC)C(=O)N[C@@H](CN)C(=O)N[C@H](C(=O)NCC(N)=O)CSCC(=O)N[C@@H](Cc2ccc(O)cc2)C(=O)N(C)[C@@H](C)C(=O)N[C@@H](CC(=O)O)C(=O)N2CCC[C@H]2C(=O)N[C@@H](CN)C(=O)N[C@@H](CCC(N)=O)C(=O)N2C[C@H](O)C[C@H]2C(=O)N[C@@H](Cc2c[nH]c3ccccc23)C(=O)N[C@@H](CO)C(=O)N[C@@H](Cc2cn(CC(=O)O)c3ccccc23)C(=O)N1C [Example 5226] ({CH2CO}-Y[NMeA]DP[Dap]Q[Hyp]WS[Trp(1-CH2COOH)][NMeNle][NMeNle][Dap]CG-NH2; thioether N-14) |
| 1 to 9.9 | CCCC[C@H]1C(=O)N(C)[C@@H](CCCC)C(=O)N[C@@H](CN)C(=O)N[C@H](C(=O)NCC(N)=O)CSCC(=O)N[C@@H](Cc2ccc(O)cc2)C(=O)N(C)[C@@H](C)C(=O)N[C@@H](CC(=O)O)C(=O)N2CCC[C@H]2C(=O)N[C@@H](CN)C(=O)N[C@@H](CC(C)C)C(=O)N2C[C@H](O)C[C@H]2C(=O)N[C@@H](Cc2c[nH]c3ccccc23)C(=O)N[C@@H](CO)C(=O)N[C@@H](Cc2cn(CC(=O)O)c3ccccc23)C(=O)N1C [Example 5227] ({CH2CO}-Y[NMeA]DP[Dap]L[Hyp]WS[Trp(1-CH2COOH)][NMeNle][NMeNle][Dap]CG-NH2; thioether N-14) |
| 1 to 9.9 | CCCC[C@H]1C(=O)N(C)[C@@H](CCCC)C(=O)N[C@@H](CC(C)C)C(=O)N[C@H](C(=O)NCC(N)=O)CSCC(=O)N[C@@H](Cc2ccc(O)cc2)C(=O)N(C)[C@@H](C)C(=O)N[C@@H](CC(N)=O)C(=O)N2CCC[C@H]2C(=O)N[C@@H](Cc2c[nH]cn2)C(=O)N[C@@H](CCCCNC(C)=O)C(=O)N2C[C@H](O)C[C@H]2C(=O)N[C@@H](Cc2c[nH]c3ccccc23)C(=O)N[C@@H](CCN)C(=O)N[C@@H](Cc2c[nH]c3ccccc23)C(=O)N1C [Example 5228] ({CH2CO}-Y[NMeA]NPHK(Ac)[Hyp]W[Dab]W[NMeNle][NMeNle]LCG-NH2; thioether N-14) |
| 1 to 9.9 | CCCC[C@H]1C(=O)N[C@@H](CN)C(=O)N[C@H](C(=O)NCC(N)=O)CSCC(=O)N[C@@H](Cc2ccc(O)cc2)C(=O)N(C)[C@@H](C)C(=O)N[C@@H](CC(=O)O)C(=O)N2CCC[C@H]2C(=O)N[C@@H](Cc2c[nH]cn2)C(=O)N[C@@H](CCC(=O)O)C(=O)N2C[C@H](O)C[C@H]2C(=O)N[C@@H](Cc2c[nH]c3ccccc23)C(=O)N[C@@H](CCN)C(=O)N[C@@H](Cc2c[nH]c3ccccc23)C(=O)N(C)[C@@H](Cc2c[nH]c3ccccc23)C(=O)N1C [Example 5229] ({CH2CO}-Y[NMeA]DPHE[Hyp]W[Dab]W[NMeW][NMeNle][Dap]CG-NH2; thioether N-14) |
| 1 to 9.9 | CCCC[C@H]1C(=O)N(C)[C@@H](CCCC)C(=O)N[C@@H](CCC(=O)O)C(=O)N[C@H](C(=O)NCC(N)=O)CSCC(=O)N[C@@H](Cc2ccc(O)cc2)C(=O)N(C)[C@@H](C)C(=O)N[C@@H](CC(=O)O)C(=O)N2CCC[C@H]2C(=O)N[C@@H](Cc2cnc[nH]2)C(=O)N[C@@H](CCC(=O)O)C(=O)N2C[C@H](O)C[C@H]2C(=O)N[C@@H](Cc2c[nH]c3ccccc23)C(=O)N[C@@H](CO)C(=O)N[C@@H](Cc2c[nH]c3ccccc23)C(=O)N1C [Example 5230] ({CH2CO}-Y[NMeA]DPHE[Hyp]WSW[NMeNle][NMeNle]ECG-NH2; thioether N-14) |

same assay, conditions: PD-L1-His 10 nM, PD-1-Ig 20 nM; read-out: HTRF Human PD-L1/PD-1 Binding Assay IC50

| IC50 [nM] | Compound |
| --- | --- |
| 1000 | CCCC[C@H]1C(=O)N(C)[C@@H](CCCC)C(=O)N[C@@H](CN)C(=O)N[C@H](C(=O)NCC(N)=O)CSCC(=O)N[C@@H](Cc2ccc(O)cc2)C(=O)N(C)[C@@H](C)C(=O)N[C@@H](CC(N)=O)C(=O)N2CCC[C@H]2C(=O)N[C@@H](Cc2c[nH]cn2)C(=O)N[C@@H](CCC(N)=O)C(=O)N2C[C@H](O)C[C@H]2C(=O)N[C@@H](Cc2c[nH]c3ccccc23)C(=O)N[C@@H](CCN)C(=O)N[C@@H](Cc2cn(CC(=O)O)c3ccccc23)C(=O)N1C [Example 5222] ({CH2CO}-Y[NMeA]NPHQ[Hyp]W[Dab][Trp(1-CH2COOH)][NMeNle][NMeNle][Dap]CG-NH2; thioether N-14) |
